Assay results reported in patent publication US10532068B2, “Dual molecular delivery of oligonucleotides and peptide containing conjugates” (Merck Sharp & Dohme Corp., priority 2013, dated 2020).
Strand notation (5' to 3'): a small letter for the sugar, then the base; units joined by * are phosphorothioate-linked, units joined directly phosphodiester-linked; [ ] holds rarer units or linkages, { } end groups; capitals alone tell only the bases. {NH2C6-invAb} = cap: inverted abasic residue carrying an aminohexyl phosphate (attachment handle); [invAb] = inverted abasic unit; m = 2'-O-methyl; f = 2'-fluoro

Assays:
CTNNB1 = experiment: In vivo evaluation in mice: liver mRNA knockdown measurement (TaqMan qPCR); parameters: species or system CD-1 mice; settings: for time course of mRNA KD in DMD format compared to 5-fold higher dose of siRNA-III alone: FIG. 4, sequential dosing, peptide 15 min after siRNA
Procedure: (§1) Female CD-1 mice (Charles River) were injected in accordance with either a sequential dosing paradigm or a co-dosing paradigm. In the sequential dosing paradigm, the targeted siRNA (SCE) is dosed at t=0 and the targeted peptide is separately dosed up to 2 hr before the SCE (−2 hr) or up to 24 hr after the SCE (+24 hr). In the co-dosing paradigm, the SCE and peptides are co-formulated and dosed together in the same formulation as a single injection at t=0. The mice were dosed either by intravenous (i.v.) or subcutaneous (s.c.) injection of SCE and peptide. For the i.v. doses, the compounds were injected into the tail vein of the mice. For the s.c. doses, the compounds were injected in the subcutaneous space on the back of the mouse between the shoulder blades. At the indicated harvest times (measured from t=0 when the siRNA was dosed, regardless of when the peptide was dosed), the animals were sacrificed and 3 mm liver punches were collected, preserved in RNAlater (Ambion), and stored at 4° C. Separate 5 mm liver punches were collected, placed in 96-well plates, frozen on dry ice, and stored at −80° C. until use.
The 3 mm liver punches were removed from RNAlater and homogenized in Trizol (Invitrogen) using a bead mill tissue lyser (Qiagen); disruption was performed for two 5-minute cycles at 30 Hz. RNA extraction was performed using 1-bromo-2-chloropropane (Acros Organics) and total RNA was isolated from the aqueous phase using the MagMax RNA isolation method (Ambion). […] TaqMan qPCR analysis was performed with an ABI 7900 Real-Time PCR System using TaqMan Fast Advanced Master Mix (Applied Biosystems). All TaqMan probes and primers for CTNNB1 and PPIB (housekeeping gene) were purchased from Applied Biosystems as pre-validated gene expression assays. Results are calculated by the comparative Ct method, where the difference between the CTNNB1 Ct value and the PPIB Ct value (ΔCt) is calculated and then further normalized relative to the PBS control by taking a second difference (ΔΔCt), as described previously (1).

RISC = target: T1, RISC (Mus musculus, UniProt Q8CJG0); experiment: Quantitation of siRNA bound to RISC in mouse liver (Ago2 immunoprecipitation, stem-loop qPCR); assay type: in vivo, CD-1 mice; settings: FIG. 5
T1 construct: from tissue; host or cells: liver of female CD-1 mice
Procedure: as §1, with “use. […]” for “use.”

[1] = siRNA metabolic stability (FIG. 6 legend); settings: order siRNA-I>siRNA-V>siRNA-VI

T1 sequence (Q8CJG0 whole entry): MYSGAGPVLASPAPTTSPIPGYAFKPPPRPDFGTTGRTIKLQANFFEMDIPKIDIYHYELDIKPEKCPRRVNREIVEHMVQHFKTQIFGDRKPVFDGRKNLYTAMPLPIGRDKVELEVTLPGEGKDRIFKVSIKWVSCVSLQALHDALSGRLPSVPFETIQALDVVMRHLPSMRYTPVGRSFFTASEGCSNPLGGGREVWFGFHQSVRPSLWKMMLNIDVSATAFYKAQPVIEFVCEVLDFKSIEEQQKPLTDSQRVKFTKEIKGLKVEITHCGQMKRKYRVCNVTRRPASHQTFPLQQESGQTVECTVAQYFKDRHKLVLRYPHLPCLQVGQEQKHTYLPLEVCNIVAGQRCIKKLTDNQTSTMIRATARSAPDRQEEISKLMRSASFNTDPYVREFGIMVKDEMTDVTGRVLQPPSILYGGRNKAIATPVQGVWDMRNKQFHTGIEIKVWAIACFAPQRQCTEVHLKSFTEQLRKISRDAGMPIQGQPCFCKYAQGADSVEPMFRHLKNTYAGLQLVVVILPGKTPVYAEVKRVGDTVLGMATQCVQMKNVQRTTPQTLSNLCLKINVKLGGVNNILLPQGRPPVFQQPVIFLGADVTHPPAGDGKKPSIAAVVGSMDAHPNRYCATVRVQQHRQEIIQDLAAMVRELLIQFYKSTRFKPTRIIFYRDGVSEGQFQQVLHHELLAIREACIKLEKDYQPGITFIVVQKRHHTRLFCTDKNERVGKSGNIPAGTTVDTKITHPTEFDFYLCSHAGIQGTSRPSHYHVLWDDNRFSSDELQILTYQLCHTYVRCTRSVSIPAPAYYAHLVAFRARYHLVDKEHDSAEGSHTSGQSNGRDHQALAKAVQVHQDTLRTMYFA

| Substance | time course of mRNA KD in DMD format compared to 5-fold higher dose of siRNA-III alone (CTNNB1) | time course of RISC loading (RISC) | activity (KD) (CTNNB1; FIG. 6, peptide dose times within 2 hr (before or after) the siRNA) [%] | siRNA stability (metabolic stability) [1] | effect of the timing of peptide dose on activity (CTNNB1; FIG. 6, peptide within 2 hr before up to 24 hr after siRNA dose) |
| --- | --- | --- | --- | --- | --- |
| siRNA-III: CTNNB1 ds siRNA, passenger SEQ ID NO 1803, guide SEQ ID NO 1806 (vinylPmoeT) (sense CUGUUGGAUUGAUUCGAAAUU; guide TUUCGAAUCAAUCCAACAGUU; vinylphosphonate MOE T; (1)..(1) aminohexyl phosphate inverted abasic cap; (1)..(2) 2′-O-methyl; (3)..(3) 2′-deoxy-2′-fluoro; (4)..(5) 2′-O-methyl; (6)..(8) 2′-deoxy-2′-fluoro; (9)..(10) 2′-O-methyl; (11)..(12) 2′-deoxy-2′-fluoro; (13)..(15) 2′-O-methyl; (16)..(19) 2′-deoxy-2′-fluoro; (20)..(21) 2′-O-methyl; (20)..(21) phosphorothioate internucleotide linkage; (21)..(21) inverted abasic cap; (1)..(1) terminal vinyl phosphate; (1)..(1) 2′-methoxyethoxy; (2)..(21) ribonucleotide unmodified or modified as described for this sequence; (2)..(2) 2′-deoxy-2′-fluoro; (3)..(3) 2′-O-methyl; (4)..(4) …) | faster and greater KD | faster RISC loading |  |  |  |
| siRNA-V: CTNNB1 ds siRNA, passenger SEQ ID NO 1803, guide SEQ ID NO 1808 (sense {NH2C6-invAb}-mCmUfGmUmUfGfGfAmUmUfGfAmUmUmCfGfAfAfAmU*mU[invAb]; guide mUfUmUfCmGfAmAfUmCfAmAfUmCfCmAfAmCfAmGmU*mU) |  |  | ~25 | moderately stable |  |
| siRNA-I: CTNNB1 ds siRNA, passenger SEQ ID NO 1803, guide SEQ ID NO 1804 (sense {NH2C6-invAb}-mCmUfGmUmUfGfGfAmUmUfGfAmUmUmCfGfAfAfAmU*mU[invAb]; guide mU*fU*mU*fCmGfAmAfUmCfAmAfUmCfCmAfAmCfAmGmU*mU; targeting ligand attached via linker, site not given here) | faster and greater KD |  |  | highly stable | does not significantly change the activity |
